Experiment [1] deals with rats subjected to chronic restraint stress. As to the kind of experiment: Social interaction test (SIT) after chronic restraint stress (CRS). As to conditions: MRK-016 3 mg/kg. The format is in vivo, rat. The source says:
(§1) MRK-016 rapidly reverses loss of sucrose preference and social interaction behaviors after chronic restraint stress (FIG. 9). […] This persisted for 7 days despite further stress exposure. and in the same animals after an additional week of CRS and 7 days after the injection of MRK-016.
(§2) Chronic restraint stress (CRS). Male Sprague Dawley rats (4-5 weeks-old; Harlan Laboratories) were placed in appropriately sized restraint tubes, highly restricting their movement for periods of four hours in a brightly lit lab, every day for ten days during the light phase of their diurnal cycle (Lim et al., 2012).
Social interaction test (SIT). As described previously (Berton et al., 2006), rats were placed in a plastic enclosure (82×82 cm) with a 5×5 grid of squares (16.4×16.4 cm) visible underneath the clear plastic flooring. A small translucent perforated plastic box (20×16 cm) was placed against the center of one wall of the arena. During the testing conditions white overhead fluorescent lighting was used to illuminate the arena. A video camera positioned 170 cm above the floor of the arena was used to track the movements of the rats during the experiment.
Each test consisted of a “target-absent” trial followed by a “target-present” trial. During testing, an individual test rat was placed in the center of the arena and, after 30s of adaptation, the rat's movements were recorded with the video camera for 2.5 minutes. […]
Results were quantified as the percentage of time spent in the “interaction zone” (the five grid squares immediately surrounding the plastic cage) as measured for both the “target-absent” and “target-present” trials. […]
(§3) Several hedonic behaviors in rodents are sensitive to chronic stress and are restored by chronic, but not acute, administration of SSRIs, providing one means to screen for potential antidepressant compounds. First, it was determined whether L-655,708 would rapidly (<24 hrs) restore normal hedonic behavior following chronic restraint stress (Watanabe et al., 1992; Lim et al., 2012), consistent with the rapid antidepressant-like actions of ketamine (Li et al., 2011). […]

For experiment [2] the test system is unchanged. The experiment is described as follows: Sucrose preference test (SPT) after chronic restraint stress (CRS). The format is in vivo, rat. As to conditions: MRK-016 3 mg/kg.
Source text: as §1, §2
Sucrose preference test (SPT). Rats were given a choice between two bottles containing tap water or a 1% sucrose solution (Rygula et al., 2006). Testing was conducted overnight (16 hours), including the full duration of their dark phase. Animals were first trained with both bottles while group-housed. For subsequent tests, including during the baseline period, animals were individually housed. Sucrose preference was calculated as amount of the sucrose solution consumed as a percentage of the total amount of liquid consumed.
Drugs/stats. L-655,708 was purchased from Tocris Bioscience (R&D Systems, Minneapolis, Minn.) and prepared at a concentration of 5 mM in 75% saline/25% DMSO. […] This dose is sufficient to occupy about 70% of forebrain binding sites (Atack et al., 2005)
as §3, with “2011). Baseline measurements were first made of social interaction and sucrose preference, and then 4-5 week old rats were subjected to ten days of CRS.” for “2011).”

In the next experiment the test system is TA-CA1 synapses. The experiment is described as follows: Anpirtoline (5-HT1BR agonist) potentiation of TA-CA1 EPSP slope in hippocampal slices. Conditions: slices after CUS. Set-up: species or system rat. The method, then: Experiment B. Do alpha5 GABA-NAMs restore 5-HT1BR-mediated potentiation? One can consider whether alpha5 GABA-NAMs reverse another phenotypic alteration of stressed TA-CA 1 synapses: amplification and persistence of responses to the 5-HT1BR agonist anpirtoline (FIG. 3A) (Cai et al., 2013). Slices are prepared from the four groups described in Experiment A. Anpirtoline (501.1M) is bath applied for 60 min, followed by a 90 min washout period. In specific embodiments, anpirtoline potentiation of […], vehicle-injected controls and that injection of alpha5 GABA-NAM […], but has no effect in control rats (see FIG. 3B).

Experiment [3] concerns chronically stressed animals. As to conditions: Li et al., 2011; cited from earlier work.
The test system of experiment [4] is depressive symptoms in humans. As to conditions: acute administration; cited from earlier work.

Consider three molecules from patent US11083732B2, “Use of negative modulators of GABA receptors containing alpha5 subunits as fast acting antidepressants” (University of Maryland, Baltimore, priority 2014, dated 2021).

As to `Cc1cc(-c2nncc3c(C(C)(C)C)c(OCc4ncnn4C)nn23)no1` [MRK-016, 3-tert-Butyl-7-(5-methylisooxazol-3-yl)-2-(1-methyl-1H-1,2,4-triazol-5-ylmethoxy)-pyrazolo[1,5-d]-[1,2,4] triazine], the social interaction scores entry in experiment [1] (CRS, 24 hours after treatment, vs pre-stress) was “not significantly different than the pre-stress condition”. Moreover, the “persistence of effect on social interaction” value in experiment [1] (despite further stress exposure) stood at 7 days. Also, in experiment [2] (CRS continued), the “persistence of effect on sucrose preference” value is on record as 7 days. Moreover, in experiment [2] (CRS, 24 hours after treatment, vs baseline), the sucrose preference entry is given as “not significantly different than the baseline before stress exposure”.
In the case of `Clc1cccc(SC2CCNCC2)n1` [anpirtoline], the “persistence of potentiation after washout” value with TA-CA1 synapses is recorded as greater than 60 min. For the same molecule, the “potentiation of TA-CA1 EPSP slope” value with TA-CA1 synapses (vs control slices) was “larger”.
Take `CNC1(c2ccccc2Cl)CCCCC1=O` (stereo not drawn) [ketamine]: the “time to restoration of sucrose preference and novelty suppressed feeding behaviors” value in experiment [3] was 24 h. In addition, in experiment [4], the “persistence of antidepressant effects” value is “up to two weeks”; the “time to improved mood and reduced depressive symptoms” value is 1 to 2 h.
